One assay relates to T1, ScGAME32-8380-1-1.
T1 construct: pET28b, E. coli BL21 (DE3), Ni-NTA purified
The assay is described as follows: hydroxylation assay, UPLC-qTOF-MS. Format: biochemical, Solanum chacoense. Conditions: alpha-ketoglutarate 10 mM, ascorbate 10 mM, FeSO4 500 uM, pH 7.5, 30 °C, 3 h; standard contains isomer impurities.

The test system of the next assay is T2, ScGAME32-8380-1-2.
T2 construct: pET28b, E. coli BL21 (DE3), Ni-NTA purified
Description: hydroxylation assay, UPLC-qTOF-MS. Format: biochemical, Solanum chacoense. As to conditions: alpha-ketoglutarate 10 mM, ascorbate 10 mM, FeSO4 500 uM, pH 7.5, 30 °C, 3 h; standard contains isomer impurities.

The target in another assay is T3, GAME31 (tomato) (Solanum lycopersicum, UniProt A0A6F8PJG0).
T3 construct: gene 23DOX
It counts as biochemical. As to conditions: alpha-ketoglutarate 10 mM, ascorbate 10 mM, FeSO4 500 uM, pH 7.5, 30 °C, 3 h.

T1 sequence (DOC6856131_6 entry or part of it): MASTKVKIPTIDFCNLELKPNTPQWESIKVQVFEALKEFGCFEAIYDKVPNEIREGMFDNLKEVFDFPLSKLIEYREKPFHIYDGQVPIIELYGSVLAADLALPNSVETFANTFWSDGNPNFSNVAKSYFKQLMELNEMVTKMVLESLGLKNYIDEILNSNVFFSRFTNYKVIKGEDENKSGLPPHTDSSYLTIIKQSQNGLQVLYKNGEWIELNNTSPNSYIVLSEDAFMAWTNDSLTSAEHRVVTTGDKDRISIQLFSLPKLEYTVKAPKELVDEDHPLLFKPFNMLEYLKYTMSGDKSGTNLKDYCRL
T2 sequence (DOC6856131_7 entry or part of it): as the sequence (DOC6856131_6 entry or part of it) above, with M288L, L292N, S301Y counted along it
T3 sequence (A0A6F8PJG0 entry or part of it): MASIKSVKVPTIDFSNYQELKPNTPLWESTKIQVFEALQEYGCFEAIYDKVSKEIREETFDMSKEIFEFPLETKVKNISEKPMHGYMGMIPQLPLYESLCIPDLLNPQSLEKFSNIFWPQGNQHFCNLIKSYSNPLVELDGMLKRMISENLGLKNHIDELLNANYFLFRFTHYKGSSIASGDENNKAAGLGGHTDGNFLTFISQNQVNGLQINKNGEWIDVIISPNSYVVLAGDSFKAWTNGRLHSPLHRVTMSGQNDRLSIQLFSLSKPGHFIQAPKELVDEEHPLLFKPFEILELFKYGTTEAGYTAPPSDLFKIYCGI

As for `C[C@H]1CC[C@@H]2[C@@H](C)[C@H]3[C@H](C[C@H]4[C@@H]5CC=C6C[C@@H](O[C@@H]7O[C@H](CO)[C@@H](O[C@@H]8O[C@@H](C)[C@H](O)[C@@H](O)[C@H]8O)[C@H](O)[C@H]7O[C@@H]7O[C@@H](C)[C@H](O)[C@@H](O)[C@H]7O)CC[C@]6(C)[C@H]5CC[C@]34C)N2C1` [α-chaconine], the “hydroxylation assay, UPLC-qTOF-MS” value in the assay on ScGAME32-8380-1-1 is “Incubation of ScGAME32-8380-1-1 or ScGAME32-8380-1-2 with α-chaconine and α-solanine resulted in the formation”; in the assay on ScGAME32-8380-1-2 it was “Incubation of ScGAME32-8380-1-1 or ScGAME32-8380-1-2 with α-chaconine and α-solanine resulted in the formation”.

Consider `C[C@@H]1CC[C@@]2(NC1)O[C@H]1C[C@H]3[C@@H]4CC=C5C[C@@H](O[C@@H]6O[C@H](CO)[C@@H](O[C@@H]7O[C@@H](C)[C@H](O)[C@@H](O)[C@H]7O)[C@H](O)[C@H]6O[C@@H]6O[C@@H](C)[C@H](O)[C@@H](O)[C@H]6O)CC[C@]5(C)[C@H]4CC[C@]3(C)[C@H]1[C@@H]2C` [α-solamargine], for which the “hydroxylation assay, UPLC-qTOF-MS” value on GAME31 (tomato) is “hydroxy-solasodine, and hydroxy-solamargine from dehydrotomatine, solasodine, and α-solamargine, respectively”.

For the origin of these results see publication PMC6856131, “Pathways to defense metabolites and evading fruit bitterness in genus Solanum evolved through 2-oxoglutarate-dependent dioxygenases” (Nature Communications, 2019).
